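Compound exposure: 48 hours, 5 concentrations, 96-well plates. TGI is the concentration that stops growth completely.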
How the values were obtained:
Assay in all cases: inhibition of tumour cell growth, NCI panel, 48 h
[1] = system: OVCAR-3 ovarian
[2] = system: HS 578T breast
[3] = system: NCI-H23 lung
[4] = system: EKVX NSCLC
[5] = system: MOLT-4 leukemia
[6] = system: UACC-62 melanoma
[7] = system: SW-620 colon
[8] = system: HT29 colon
[9] = system: RPMI-8226 leukemia
[10] = system: NCI-H522 lung
[11] = system: OVCAR-5 ovarian
[12] = system: OVCAR-8 ovarian
[13] = system: IGROV1 ovarian
[14] = system: UO-31 renal
[15] = system: HCT-116 colon
[16] = system: MALME-3M melanoma
[17] = system: LOX IMVI melanoma
[18] = system: KM12 colon
[19] = system: U251 CNS
[20] = system: DU-145 prostate
[21] = system: PC-3 prostate
[22] = system: TK-10 renal
[23] = system: CAKI-1 renal
[24] = system: M14 melanoma
[25] = system: SN12C renal
[26] = system: A498 renal
[27] = system: SK-MEL-28 melanoma
[28] = system: SF-268 CNS
[29] = system: HCC-2998 colon
[30] = system: SF-539 CNS
[31] = system: SK-MEL-5 melanoma
[32] = system: ACHN renal
[33] = system: SNB-19 CNS
[34] = system: 786-0 renal
[35] = system: SK-MEL-2 melanoma
[36] = system: NCI-H226 lung
[37] = system: SK-OV-3 ovarian
[38] = system: A549 NSCLC
[39] = system: HL-60(TB) leukemia
[40] = system: COLO 205 colon
[41] = system: MDA-N
[42] = system: UACC-257 melanoma
[43] = system: MCF7 breast
[44] = system: MDA-MB-231 breast
[45] = system: NCI-H460 lung
[46] = system: HCT-15 colon
[47] = system: T-47D breast
[48] = system: OVCAR-4 ovarian
[49] = system: K-562 leukemia
[50] = system: SF-295 CNS
[51] = system: HOP-92 NSCLC
[52] = system: NCI/ADR-RES ovarian
[53] = system: BT-549 breast
[54] = system: MDA-MB-435
[55] = system: CCRF-CEM leukemia
[56] = system: RXF 393 renal
[57] = system: HOP-62 NSCLC
[58] = system: SNB-75 CNS

CC(=O)OCCn1c(Cc2ccc(C)cc2)nn(C(C)=O)c1=O
TGI [1]: > 100 µM | TGI [2]: > 100 µM | TGI [3]: > 100 µM | TGI [4]: > 100 µM | TGI [5]: > 100 µM | TGI [6]: > 100 µM | TGI [7]: > 100 µM | TGI [8]: > 100 µM | TGI [9]: > 100 µM | TGI [10]: > 100 µM | TGI [11]: > 100 µM | TGI [12]: > 100 µM | TGI [13]: > 100 µM | TGI [14]: > 100 µM | TGI [15]: > 100 µM | TGI [16]: > 100 µM | TGI [17]: > 100 µM | TGI [18]: > 100 µM | TGI [19]: > 100 µM | TGI [20]: > 100 µM | TGI [21]: > 100 µM | TGI [22]: > 100 µM | TGI [23]: > 100 µM | TGI [24]: > 100 µM | TGI [25]: > 100 µM | TGI [26]: > 100 µM | TGI [27]: > 100 µM | TGI [28]: > 100 µM | TGI [29]: > 100 µM | TGI [30]: > 100 µM | TGI [31]: > 100 µM | TGI [32]: > 100 µM | TGI [33]: > 100 µM | TGI [34]: > 100 µM | TGI [35]: > 100 µM | TGI [36]: > 100 µM | TGI [37]: > 100 µM | TGI [38]: > 100 µM | TGI [39]: > 100 µM | TGI [40]: > 100 µM | TGI [41]: > 100 µM | TGI [42]: > 100 µM | TGI [43]: > 100 µM | TGI [44]: > 100 µM | TGI [45]: > 100 µM | TGI [46]: > 100 µM | TGI [47]: > 100 µM | TGI [48]: > 100 µM | TGI [49]: > 100 µM | TGI [50]: > 100 µM | TGI [51]: > 100 µM | TGI [52]: > 100 µM | TGI [53]: > 100 µM | TGI [54]: > 100 µM

CC1(C)Cc2c(c3ccccc3c3nc4c(nc23)c2c(c3ccccc34)OC(C)(C)C2)O1
TGI [1]: > 100 µM | TGI [2]: > 100 µM | TGI [3]: > 100 µM | TGI [4]: > 100 µM | TGI [5]: > 100 µM | TGI [6]: > 100 µM | TGI [7]: > 100 µM | TGI [8]: > 100 µM | TGI [9]: > 100 µM | TGI [10]: > 100 µM | TGI [11]: > 100 µM | TGI [12]: > 100 µM | TGI [13]: > 100 µM | TGI [15]: > 100 µM | TGI [16]: > 100 µM | TGI [17]: > 100 µM | TGI [18]: > 100 µM | TGI [19]: > 100 µM | TGI [20]: > 100 µM | TGI [21]: > 100 µM | TGI [22]: > 100 µM | TGI [23]: > 100 µM | TGI [24]: > 100 µM | TGI [25]: > 100 µM | TGI [26]: > 100 µM | TGI [27]: > 100 µM | TGI [28]: > 100 µM | TGI [29]: > 100 µM | TGI [30]: > 100 µM | TGI [31]: > 100 µM | TGI [55]: > 100 µM | TGI [32]: > 100 µM | TGI [33]: > 100 µM | TGI [34]: > 100 µM | TGI [35]: > 100 µM | TGI [37]: > 100 µM | TGI [38]: > 100 µM | TGI [39]: > 100 µM | TGI [40]: > 100 µM | TGI [41]: > 100 µM | TGI [42]: > 100 µM | TGI [43]: > 100 µM | TGI [44]: > 100 µM | TGI [45]: > 100 µM | TGI [46]: > 100 µM | TGI [47]: > 100 µM | TGI [56]: > 100 µM | TGI [48]: > 100 µM | TGI [57]: > 100 µM | TGI [50]: > 100 µM | TGI [51]: > 100 µM | TGI [52]: > 100 µM | TGI [53]: > 100 µM | TGI [54]: > 100 µM

O=C(CCN1CCOCC1)c1ccc(Oc2ccc(F)cc2)cc1
TGI [1]: 50.7 µM | TGI [2]: 40.8 µM | TGI [3]: 70.4 µM | TGI [4]: 36.9 µM | TGI [5]: 55.2 µM | TGI [6]: 37 µM | TGI [7]: 62.6 µM | TGI [8]: 34.2 µM | TGI [11]: 54.2 µM | TGI [12]: 41.7 µM | TGI [13]: 39.4 µM | TGI [14]: 38.3 µM | TGI [15]: 44.2 µM | TGI [16]: 40.9 µM | TGI [17]: 48.5 µM | TGI [18]: 32.6 µM | TGI [19]: > 100 µM | TGI [20]: > 100 µM | TGI [21]: 34.2 µM | TGI [22]: 32.5 µM | TGI [23]: 33 µM | TGI [24]: 38.3 µM | TGI [25]: > 100 µM | TGI [26]: > 100 µM | TGI [27]: 52.2 µM | TGI [29]: > 100 µM | TGI [30]: 38.7 µM | TGI [31]: > 100 µM | TGI [55]: 57.1 µM | TGI [32]: 32.1 µM | TGI [33]: > 100 µM | TGI [34]: 30.8 µM | TGI [35]: 57.1 µM | TGI [36]: 78 µM | TGI [37]: > 100 µM | TGI [38]: > 100 µM | TGI [39]: 78.7 µM | TGI [40]: 47 µM | TGI [41]: 52.3 µM | TGI [42]: 32.9 µM | TGI [43]: 40.4 µM | TGI [44]: 39 µM | TGI [58]: 46.2 µM | TGI [45]: > 100 µM | TGI [46]: 36.5 µM | TGI [47]: 42.6 µM | TGI [48]: > 100 µM | TGI [57]: > 100 µM | TGI [49]: 51.4 µM | TGI [50]: > 100 µM | TGI [51]: 49.5 µM | TGI [52]: 69 µM | TGI [53]: 35.9 µM | TGI [54]: > 100 µM

Source: PubChem BioAssay (NCI)
